Reference: patent US20080194585A1, “Fungicidal Pyrazine Derivatives” (priority 2005, published 2008)
Marks after values point to notes of the source that are not given here.

Key:
[1] = system: Pythium aphanidermatum; experiment: Test A: bluegrass pythium blight, preventive spray on bluegrass seedlings
[2] = system: Septoria nodorum; experiment: Test H: wheat glum blotch, preventive spray on wheat seedlings
Method: (the causal agent of wheat glum blotch) and incubated in a saturated atmosphere at 20° C. for 48 h, and then moved to a growth chamber at 22° C. for 5 days, after which disease ratings were made.

[3] = system: Sclerotinia sclerotiorum; experiment: Test C: cucumber white mold, preventive spray on cucumber seedlings
[4] = system: Botrytis cinerea; experiment: Test E: tomato botrytis, preventive spray on tomato seedlings
[5] = system: Colletotrichum orbiculare; experiment: Test B: cucumber Colletotrichum anthracnose, preventive spray on cucumber seedlings
[6] = system: fusarium graminearium; experiment: Test I: wheat head scab, preventive spray on wheat seedlings
Method: (the causal agent of wheat head scab) and incubated in a saturated atmosphere at 20° C. for 72 h, and then moved to a growth chamber at 22° C. for 5 days, after which disease ratings were made.

[7] = system: Plasmopara viticola; experiment: Test D: grape downy mildew, spray after inoculation of grape seedlings; format: in vivo
Excerpt: Upon removal, disease ratings were made. […] A dash (-) indicates no test results.

[8] = system: Rhizoctonia oryzae; experiment: Test G: turf brown patch, preventive spray on creeping bent grass seedlings
Method: (the causal agent of turf brown patch) and incubated in a saturated atmosphere at 27° C. for 24 h, and then moved to a growth chamber at 27° C. for 5 days, after which disease ratings were made.

[9] = system: Erysiphe graminis f. sp. tritici; experiment: Test L: wheat powdery mildew, preventive spray on wheat seedlings
[10] = system: Phytophthora infestans; experiment: whole plant or invertebrate; format: in vivo
[11] = system: Puccinia recondita f. sp. tritici; experiment: Test K: wheat leaf rust, preventive spray on wheat seedlings

Row | Structure (SMILES) | Test A disease control rating ([1]; 200 ppm) | Test H disease control rating ([2]; 200 ppm) | Test C disease control rating ([3]; 200 ppm) | Test E disease control rating ([4]; 200 ppm) | Test B disease control rating ([5]; 200 ppm) | Test I disease control rating ([6]; 200 ppm) | Test D disease control rating ([7]; 200 ppm) | Test G disease control rating ([8]; 200 ppm) | Test L disease control rating ([9]; 200 ppm) | Test F disease control rating ([10]; 200 ppm) | Test K disease control rating ([11]; 200 ppm) | other results
1 | O=c1c(N2CCC=N2)nc(Cl)c(-c2c(F)cccc2F)n1CC1CC1 [compound 16] | 0% | 0% | 0% | 99% | 0% | 0% | 8% | 0% | 26% | 84% | 68% | –
2 | CCC(C)Cn1c(-c2c(F)cc(F)cc2F)c(Cl)nc(-n2cncn2)c1=O (stereo not shown) [compound 20] | 0% | 98% | 0% | 100% | 0% | 0% | 0% | 26% | 98% | 30% | 100% | –
3 | CCC(C)Cn1c(-c2c(F)cccc2F)c(Cl)nc(C#N)c1=O (stereo not shown) [compound 21] | 0% | 0% | 0% | 99% | 0% | 0% | 15% | 31% | 96% | 0% | 96% | –
4 | CC(C)Cn1c(-c2cccc(Cl)c2Cl)c(Cl)nc(-n2cncn2)c1=O [compound 39] | 0% | 89% | 0% | 99% | 0% | 0% | 0% | 0% | 0% | 0% | 67% | –
5 | CC(C)Cn1c(-c2c(Cl)cccc2Cl)c(Cl)nc(-n2cncn2)c1=O [compound 40] | 0% | 99% | 0% | 100% | 0% | 0% | 0% | 65% | 21% | 0% | 99% | –
6 | CC(C)Cn1c(-c2cccc(Cl)c2Cl)c(Cl)nc(-n2cccn2)c1=O [compound 41] | 0% | 100% | 98% | 100% | 68% | 0% | 8% | 47% | 0% | 0% | 83% | –
7 | CC(C)Cn1c(-c2cc(Cl)cc(Cl)c2)c(Cl)nc(-n2cccn2)c1=O [compound 42] | 0% | 0% | 0% | 0% | 0% | 60% | 0% | 0% | 0% | 0% | 0% | –
8 | CC(C)Cn1c(-c2ccc(Cl)cc2F)c(Cl)nc(-n2cncn2)c1=O [compound 44] | – | – | – | – | – | – | – | – | – | – | – | Test A disease control rating ([1]; 40 ppm (*)): 0* %; Test H disease control rating ([2]; 40 ppm (*)): 0* %; Test C disease control rating ([3]; 40 ppm (*)): 0* %; Test E disease control rating ([4]; 40 ppm (*)): 95* %; Test B disease control rating ([5]; 40 ppm (*)): 0* %; Test I disease control rating ([6]; 40 ppm (*)): 0* %; Test D disease control rating ([7]; 40 ppm (*)): 0* %; Test G disease control rating ([8]; 40 ppm (*)): 16* %; Test L disease control rating ([9]; 40 ppm (*)): 0* %; Test F disease control rating ([10]; 40 ppm (*)): 0* %; Test K disease control rating ([11]; 40 ppm (*)): 0* %
9 | CC(C)Cn1c(-c2ccc(C(F)(F)F)cc2F)c(Cl)nc(-n2cccn2)c1=O [compound 46] | 0% | 0% | 0% | 0% | 0% | 78% | 0% | 0% | 0% | 0% | 0% | –
10 | CC(C)=NNc1nc(Cl)c(-c2c(F)cccc2F)n(CC(C)C)c1=O [compound 48] | 0% | 0% | 0% | 83% | 0% | 0% | 0% | 16% | 0% | 0% | 80% | –
11 | COc1nc(-n2cccn2)c(=O)n(C2CCCCC2)c1-c1c(F)cccc1F [compound 49] | 0% | 0% | 0% | 47% | 0% | 0% | 8% | 16% | 21% | 0% | 0% | –
12 | CC(C)Cn1c(-c2ccc(F)cc2Cl)c(Cl)nc(-n2cncn2)c1=O [compound 51] | 0% | 100% | 99% | 100% | 98% | 94% | 0% | 31% | 63% | 0% | 100% | –
13 | CC(C)Cn1c(-c2cccc(F)c2F)c(Cl)nc(-n2cncn2)c1=O [compound 52] | 0% | 98% | 90% | 98% | 0% | 0% | 0% | 16% | 21% | 0% | 74% | –
14 | CC(C)Cn1c(-c2cc(F)ccc2F)c(Cl)nc(-n2cncn2)c1=O [compound 54] | 0% | 90% | 92% | 100% | 0% | 0% | 0% | 84% | 0% | 0% | 98% | –
